How the values were obtained:
[1] = tested on: Sal. enteritidis No. 11(T-okai); assay: Antibacterial activity (MIC), serial dilution method; type: cell-based; conditions: Salmonella enterica, 20 h
[2] = tested on: B. anthracis No. 119; assay: microbe, parasite or virus in culture; type: cell-based; conditions: Bacillus anthracis, NO.119, 20 h
[3] = tested on: Serra. marcescens No. 2; assay: Antibacterial activity (MIC), serial dilution method; type: cell-based; conditions: Serratia marcescens, nutrient agar, 37° C., 20 hours
[4] = tested on: Pro. morganii K-ono; assay: as above; type: cell-based; conditions: Morganella morganii; nutrient agar, 37° C., 20 hours
[5] = tested on: E. coli JR 66/W 677(A-20683); assay: as above; type: cell-based; conditions: Escherichia coli, 20 h
[6] = tested on: Sta. epidermidis 109; assay: as above; type: cell-based; conditions: Staphylococcus epidermidis, nutrient agar, 37° C., 20 hours
[7] = tested on: Sta. epidermidis ATCC 14990; assay: as above; type: cell-based; conditions: Staphylococcus epidermidis, ATCC14990; nutrient agar, 37° C., 20 hours
[8] = tested on: Sta. aureus N-0089; assay: as above; type: cell-based; conditions: Staphylococcus aureus, N0089; nutrient agar, 37° C., 20 hours
[9] = tested on: Pro. rettgelli J-0026; assay: as above; type: cell-based; conditions: 20 h
[10] = tested on: Kleb. pneumoniae 22# 3038 (A-20680); assay: as above; type: cell-based; conditions: Klebsiella pneumoniae; nutrient agar, 37° C., 20 hours; read-out: MIC
[11] = tested on: Sal. typhi 0-901-W; assay: as above; type: cell-based; conditions: Salmonella enterica, 20 h
[12] = tested on: Ps. aeruginosa IAM-1007; assay: as above; type: cell-based; conditions: Pseudomonas aeruginosa, IAM1007, 20 h
[13] = tested on: E. coli A-0001; assay: as above; type: cell-based; conditions: Escherichia coli, A0001; nutrient agar, 37° C., 20 hours
[14] = tested on: drug-resistant microbial strains including Pseudomonas aeruginosa; conditions: cited from earlier work
[15] = tested on: B. subtilis ATCC 6633; assay: Antibacterial activity (MIC), serial dilution method; type: cell-based; conditions: Bacillus subtilis, ATCC6633; nutrient agar, 37° C., 20 hours
[16] = tested on: Pro. vulgaris OX19; assay: as above; type: cell-based; conditions: Proteus vulgaris, nutrient agar, 37° C., 20 hours
[17] = tested on: Sta. aureus ApO-1; assay: as above; type: cell-based; conditions: Staphylococcus aureus, APO1; nutrient agar, 37° C., 20 hours
[18] = tested on: Shigella dysenteriae Shigae; assay: microbe, parasite or virus in culture; type: cell-based; conditions: 20 h
[19] = tested on: Sal. species D-0029; assay: Antibacterial activity (MIC), serial dilution method; type: cell-based; conditions: nutrient agar, 37° C., 20 hours
Experimental: (§1) Antimicrobial spectra of 1-N-(L-isoseryl)- and 1-N-(L-4-amino-2-hydroxybutyryl)-3',4'-dideoxy-3',4'-didehydrokanamycin B (1-AHP-eno-DKB and 1-AHB-eno-DKB) are shown in the following table together with that of 1-N-(L-4-amino-2-hydroxybutyryl)-3',4'-dideoxykanamycin B (1-AHB-DKB).
(§2) The minimum inhibitory concentrations (mcg/ml) of the compounds tested against various microorganisms were determined according to a serial dilution method using nutrient agar medium at 37° C., the estimation being effected after 20 hours-incubation.

[20] = tested on: E. coli W 677(A-20684); assay: as above; type: cell-based; conditions: Escherichia coli; nutrient agar, 37° C., 20 hours
Experimental: as §1, §2

[21] = tested on: Sal. species D-0001; assay: as above; type: cell-based; conditions: nutrient agar, 37° C., 20 hours
Experimental: as §1, §2

[22] = tested on: Sal. species D-0006; assay: as above; type: cell-based; conditions: nutrient agar, 37° C., 20 hours
Experimental: as §1, §2

[23] = tested on: Sta. aureus Smith S-424; assay: as above; type: cell-based; conditions: Staphylococcus aureus, SMITHS424; nutrient agar, 37° C., 20 hours
[24] = tested on: Sta. aureus No. 26; assay: as above; type: cell-based; conditions: Staphylococcus aureus, nutrient agar, 37° C., 20 hours
[25] = tested on: Pro. vulgaris J-0001; assay: as above; type: cell-based; conditions: Proteus vulgaris, J0001, 20 h
[26] = tested on: Serra. marcescens No. 1; assay: as above; type: cell-based; conditions: Serratia marcescens, nutrient agar, 37° C., 20 hours
[27] = tested on: Ps. aeruginosa M-0032; assay: as above; type: cell-based; conditions: Pseudomonas aeruginosa, M0032, 20 h
[28] = tested on: Sal. typhimurium LT-2; assay: as above; type: cell-based; conditions: Salmonella enterica, 20 h
[29] = tested on: Ps. aeruginosa M-0148; assay: as above; type: cell-based; conditions: Pseudomonas aeruginosa, M0148, 20 h
[30] = tested on: Str. faecalis ATCC 8043; assay: as above; type: cell-based; conditions: Enterococcus faecalis, ATCC8043; nutrient agar, 37° C., 20 hours
[31] = tested on: E. coli No. 29; assay: as above; type: cell-based; conditions: Escherichia coli, nutrient agar, 37° C., 20 hours
[32] = tested on: E. coli A-0003; assay: as above; type: cell-based; conditions: Escherichia coli, A0003; nutrient agar, 37° C., 20 hours
[33] = tested on: Ps. aeruginosa E-2; assay: as above; type: cell-based; conditions: Pseudomonas aeruginosa, E2, 20 h
[34] = tested on: Ps. aeruginosa M-0002; assay: as above; type: cell-based; conditions: Pseudomonas aeruginosa, M0002; nutrient agar, 37° C., 20 hours; read-out: MIC
[35] = tested on: Ps. aeruginosa IID 1210 (IFO 3455); assay: as above; type: cell-based; conditions: Pseudomonas aeruginosa, 20 h
[36] = tested on: Ps. aeruginosa NC-5; assay: as above; type: cell-based; conditions: Pseudomonas aeruginosa, NC5, 20 h
[37] = tested on: Serra. marcescens I-0043; assay: as above; type: cell-based; conditions: Serratia marcescens, I0043, 20 h
[38] = tested on: Sta. aureus Rosenbach FDA 209-P JC-1; assay: as above; type: cell-based; conditions: Staphylococcus aureus, FDA209; nutrient agar, 37° C., 20 hours
[39] = tested on: Kleb. pneumoniae; assay: as above; type: cell-based; conditions: Klebsiella pneumoniae; nutrient agar, 37° C., 20 hours; read-out: MIC
[40] = tested on: E. coli (M) Cast. & Chalm.NIHJ JC-2; assay: as above; type: cell-based; conditions: Escherichia coli, NIHJJC2, 20 h
[41] = tested on: Pro. mirabilis J-0010; assay: as above; type: cell-based; conditions: Proteus mirabilis, J0010, 20 h

NCCC(O)C(=O)NC1CC(N)C(OC2OC(CN)CCC2N)C(O)C1OC1OC(CO)C(O)C(N)C1O [1-AHB-DKB, 1-N-(L-4-amino-2-hydroxybutyryl)-3',4'-dideoxykanamycin B]
0.2 µg/mL: MIC [6] | MIC [17] | MIC [20]
3.13 µg/mL: MIC [3] | MIC [4] | MIC [13] | MIC [16] | MIC [19] | MIC [26] | MIC [31] | MIC [32] | MIC [34]
high activity: activity against a wide variety of drug-resistant microbial strains [14]
1.56 µg/mL: MIC [1] | MIC [5] | MIC [12] | MIC [21] | MIC [22] | MIC [25] | MIC [28] | MIC [37] | MIC [40] | MIC [41]
0.1 µg/mL: MIC [2] | MIC [7] | MIC [15]
6.25 µg/mL: MIC [9] | MIC [29] | MIC [33] | MIC [36]
12.5 µg/mL: MIC [27] | MIC [35]
50 µg/mL: MIC [30]
0.78 µg/mL: MIC [10] | MIC [18] | MIC [24] | MIC [39]
0.05 µg/mL: MIC [38]
0.39 µg/mL: MIC [8] | MIC [11] | MIC [23]

— US4268664A, “Process for the preparation of 1-N-isoseryl- or 1-N-(L-4-amino-2-hydroxybutyryl)-3',4'-dideoxykanamycin B and intermediates thereof” (Zaidan Hojin Biseibutsu Kagaku Kenkyu Kai, priority 1978, dated 1981)
